Experimental data published in patent publication US20150233926A1, “METHOD FOR SPECIFICALLY DETECTING A MATRIX METALLOPROTEINASE (MMP) WHICH IS ONLY OF INTEREST IN THE ACTIVE FORM THEREOF, IN A SAMPLE” (priority 2012, published 2015).

Tests used:
human MMP 3 = human MMP 3 (Homo sapiens, UniProt P08254); experiment: Ki determination with fluorogenic substrate MCA-Mat, human MMP3; assay type: biochemical; settings: recombinant MMP 3 h at 0.3 nM, 100 μL, MCA-Mat 15 μM
Procedure: (§1) The inhibition constants Ki of compounds P1, P2, and P3 were determined in comparison to human MMPs 2, 3, 8, 9, 12, 13, 14 and to murine MMP12. Recombinant proteases were used in volumes of 100 μL at concentrations of 0.05, 0.3, 0.03, 0.05, 0.03, 0.015, and 0.5 nM respectively for human MMPs 2, 3, 8, 9, 12, 13, 14, and at a concentration of 0.1 nM for murine MMP12. […] Recall that the lower the Ki of a compound, the greater its potential for inhibiting the chosen target.

human MMP 2 = target: T1, human MMP 2 (Homo sapiens, UniProt P08253); experiment: Ki determination with fluorogenic substrate MCA-Mat, human MMP2; assay type: biochemical; settings: recombinant MMP 2 h at 0.05 nM, 100 μL, MCA-Mat 15 μM
T1 sequence (P08253 110-660): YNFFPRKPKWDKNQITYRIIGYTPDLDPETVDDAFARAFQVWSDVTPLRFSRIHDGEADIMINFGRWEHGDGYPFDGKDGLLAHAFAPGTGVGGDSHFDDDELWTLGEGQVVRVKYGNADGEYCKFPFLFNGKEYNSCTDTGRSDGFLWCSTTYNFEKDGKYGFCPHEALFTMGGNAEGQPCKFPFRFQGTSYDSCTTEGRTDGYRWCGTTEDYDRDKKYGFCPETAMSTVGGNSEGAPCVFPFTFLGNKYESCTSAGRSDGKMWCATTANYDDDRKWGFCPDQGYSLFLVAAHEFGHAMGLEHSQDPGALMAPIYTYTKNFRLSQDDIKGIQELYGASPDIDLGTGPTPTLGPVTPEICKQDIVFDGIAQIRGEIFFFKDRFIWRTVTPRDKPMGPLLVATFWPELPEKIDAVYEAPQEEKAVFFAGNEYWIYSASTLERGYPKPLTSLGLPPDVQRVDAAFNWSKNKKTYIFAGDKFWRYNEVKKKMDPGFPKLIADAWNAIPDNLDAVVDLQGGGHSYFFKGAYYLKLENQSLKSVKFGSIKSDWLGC
Procedure: as §1

human MMP 13 = human MMP 13 (Homo sapiens, UniProt P45452); experiment: Ki determination with fluorogenic substrate MCA-Mat, human MMP13; assay type: biochemical; settings: recombinant MMP 13 h at 0.015 nM, 100 μL, MCA-Mat 15 μM
Procedure: as §1

human MMP 14 = human MMP 14 (Homo sapiens, UniProt P50281); experiment: Ki determination with fluorogenic substrate MCA-Mat, human MMP14; assay type: biochemical; settings: recombinant MMP 14 h at 0.5 nM, 100 μL, MCA-Mat 15 μM
Procedure: as §1

human MMP 8 = human MMP 8 (Homo sapiens, UniProt P22894); experiment: Ki determination with fluorogenic substrate MCA-Mat, human MMP8; assay type: biochemical; settings: recombinant MMP 8 h at 0.03 nM, 100 μL, MCA-Mat 15 μM
Chain of human MMP 8 (P22894 101-467): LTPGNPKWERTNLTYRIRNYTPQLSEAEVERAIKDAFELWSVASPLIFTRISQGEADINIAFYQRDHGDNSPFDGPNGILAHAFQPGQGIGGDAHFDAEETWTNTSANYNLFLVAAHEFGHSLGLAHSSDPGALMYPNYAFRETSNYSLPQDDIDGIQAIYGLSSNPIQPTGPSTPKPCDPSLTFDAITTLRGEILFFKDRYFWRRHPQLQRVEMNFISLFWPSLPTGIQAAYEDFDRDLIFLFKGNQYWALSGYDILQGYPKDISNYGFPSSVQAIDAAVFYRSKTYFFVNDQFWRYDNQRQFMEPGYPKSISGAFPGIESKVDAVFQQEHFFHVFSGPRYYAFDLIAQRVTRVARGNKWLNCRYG
Procedure: as §1

human MMP 12 = human MMP 12 (Homo sapiens, UniProt P39900); experiment: Ki determination with fluorogenic substrate MCA-Mat, human MMP12; assay type: biochemical; settings: recombinant MMP 12 h at 0.03 nM, 100 μL, MCA-Mat 15 μM
Chain of human MMP 12 (P39900 106-470): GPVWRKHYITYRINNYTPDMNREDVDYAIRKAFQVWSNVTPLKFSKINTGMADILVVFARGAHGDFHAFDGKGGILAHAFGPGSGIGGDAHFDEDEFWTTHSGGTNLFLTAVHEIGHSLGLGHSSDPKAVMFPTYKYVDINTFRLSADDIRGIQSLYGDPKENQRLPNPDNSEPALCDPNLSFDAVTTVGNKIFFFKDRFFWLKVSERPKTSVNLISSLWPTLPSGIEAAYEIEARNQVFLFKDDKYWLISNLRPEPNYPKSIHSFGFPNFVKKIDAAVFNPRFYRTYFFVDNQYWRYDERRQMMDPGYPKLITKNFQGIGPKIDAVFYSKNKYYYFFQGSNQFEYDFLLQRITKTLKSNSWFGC
Procedure: as §1

human MMP 9 = human MMP 9 (Homo sapiens, UniProt P14780); experiment: Ki determination with fluorogenic substrate MCA-Mat, human MMP9; assay type: biochemical; settings: recombinant MMP 9 h at 0.05 nM, 100 μL, MCA-Mat 15 μM
Chain of human MMP 9 (P14780 94-707): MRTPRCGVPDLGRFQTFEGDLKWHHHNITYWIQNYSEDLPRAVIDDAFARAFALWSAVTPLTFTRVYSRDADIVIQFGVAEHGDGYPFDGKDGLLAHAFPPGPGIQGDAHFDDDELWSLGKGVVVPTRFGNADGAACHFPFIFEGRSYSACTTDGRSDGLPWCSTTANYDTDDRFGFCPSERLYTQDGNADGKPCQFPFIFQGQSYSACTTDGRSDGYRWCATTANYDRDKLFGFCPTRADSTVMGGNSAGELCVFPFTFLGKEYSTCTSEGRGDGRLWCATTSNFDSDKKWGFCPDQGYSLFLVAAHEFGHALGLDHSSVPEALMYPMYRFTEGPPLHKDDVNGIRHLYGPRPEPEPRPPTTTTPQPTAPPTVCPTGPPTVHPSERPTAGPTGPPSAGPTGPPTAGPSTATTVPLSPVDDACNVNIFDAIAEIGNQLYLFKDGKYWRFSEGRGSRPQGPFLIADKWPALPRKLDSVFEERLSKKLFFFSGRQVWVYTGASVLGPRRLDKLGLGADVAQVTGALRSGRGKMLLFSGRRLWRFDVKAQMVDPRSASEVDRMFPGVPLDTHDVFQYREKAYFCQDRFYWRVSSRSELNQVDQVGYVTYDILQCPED
Procedure: as §1

murine MMP12 = murine MMP12 (Mus musculus, UniProt P34960); experiment: Ki determination with fluorogenic substrate MCA-Mat, murine MMP12; assay type: biochemical; settings: recombinant MMP 12 m at 0.1 nM, 100 μL, MCA-Mat 15 μM
Chain of murine MMP12 (P34960 110-473): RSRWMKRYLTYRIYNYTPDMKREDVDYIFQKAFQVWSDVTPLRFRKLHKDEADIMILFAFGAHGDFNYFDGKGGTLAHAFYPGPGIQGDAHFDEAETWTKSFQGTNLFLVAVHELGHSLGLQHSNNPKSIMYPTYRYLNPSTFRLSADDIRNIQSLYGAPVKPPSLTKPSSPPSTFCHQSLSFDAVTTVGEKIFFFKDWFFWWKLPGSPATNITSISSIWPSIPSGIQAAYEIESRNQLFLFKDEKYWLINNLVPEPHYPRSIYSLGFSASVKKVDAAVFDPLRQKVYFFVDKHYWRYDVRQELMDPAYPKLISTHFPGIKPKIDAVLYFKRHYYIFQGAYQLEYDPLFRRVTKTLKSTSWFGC
Procedure: as §1

MMP12h = MMP12h (Homo sapiens, UniProt P39900); settings: read-out: Ki with respect to MMP12h; competitor used in strip and EIA tests; described in Devel et al, 2006; cited from earlier work
Chain of MMP12h (P39900 106-470): as the sequence (P39900 106-470) above

Chain of human MMP 3 (P08254 100-477): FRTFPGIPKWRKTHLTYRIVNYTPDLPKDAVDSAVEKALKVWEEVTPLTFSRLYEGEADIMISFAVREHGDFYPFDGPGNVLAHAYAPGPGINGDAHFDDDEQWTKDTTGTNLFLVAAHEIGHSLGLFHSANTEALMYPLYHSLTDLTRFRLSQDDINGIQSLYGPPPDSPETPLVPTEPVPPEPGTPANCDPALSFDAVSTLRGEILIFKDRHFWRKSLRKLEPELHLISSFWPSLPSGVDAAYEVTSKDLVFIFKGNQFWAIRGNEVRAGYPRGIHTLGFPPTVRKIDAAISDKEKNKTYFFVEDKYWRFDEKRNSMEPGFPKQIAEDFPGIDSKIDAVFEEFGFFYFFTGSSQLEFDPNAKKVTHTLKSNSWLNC

Row | Structure (SMILES) | Ki (human MMP 3) [nM] | Ki (human MMP 2) [nM] | Ki (human MMP 13) [nM] | Ki (human MMP 14) [nM] | Ki (human MMP 8) [nM] | Ki (human MMP 12) [nM] | Ki (human MMP 9) [nM] | Ki (murine MMP12) [nM] | Ki (MMP12h) [nM]
1 | CC(=O)SCC(=O)NCCOCCOCCOCCOCCOCCOCCOCCOCCOCCOCCOCCOCCOCCOCCOCCOCCOCCOCCOCOCCOCCOCCOCCOCCOCCOCCOCCOCCC(=O)NCCCOCCOCCOCCCNC(=O)CNC(=O)[C@H](C)NC(=O)[C@H](Cc1ccc(O)cc1)NC(=O)C(Cc1cc(-c2ccc(-c3cccc(Cl)c3)cc2)no1)CP(=O)(O)[C@H](Cc1ccccc1)NC(=O)[C@H](C)NC(=O)[C@@H]1CCCN1C(C)=O (stereo partly shown) [Ligand P1] | 0.75 | 0.12 | 0.017 | 0.53 | 0.09 | 0.03 | 0.28 | 0.08 | –
2 | CCC(=O)NOCCOCCOCCOCCOCCOCCOCCOCCOCCOCCOCCOCCOCOCCOCCOCCOCCOCCOCCOCCOCCOCCOCCOCCOCCOCCOCCOCCC(=O)N1CCC[C@H]1C(=O)N[C@@H](C)C(=O)N[C@@H](Cc1ccccc1)P(=O)(O)CC(Cc1cc(-c2ccc(-c3cccc(Cl)c3)cc2)no1)C(=O)N[C@@H](Cc1ccc(O)cc1)C(=O)N[C@@H](C)C(=O)NCC(=O)NCCCOCCOCCOCCCNC(=O)CCCCC1SCC2NC(=O)NC21 (stereo partly shown) [Ligand P3] | 1.55 | 0.3 | 0.07 | 1.82 | 0.47 | 0.26 | 0.73 | 0.66 | –
3 | CC(=O)N1CCC[C@H]1C(=O)N[C@@H](C)C(=O)N[C@@H](Cc1ccccc1)P(=O)(O)CC(Cc1cc(-c2ccc(-c3cccc(Cl)c3)cc2)no1)C(=O)N[C@@H](Cc1ccc(O)cc1)C(=O)N[C@@H](C)C(=O)NCC(=O)NCCCOCCOCCOCCCNC(=O)CCOCCOCCOCCOCCOCCOCCOCCOCCOCOCCOCCOCCOCCOCCOCCOCCOCCOCCOCCOCCOCCOCCOCCOCCNC(=O)CCCN1C(=O)C=CC1=O (stereo partly shown) [Ligand P2] | 1 | 0.15 | 0.03 | 0.7 | 0.12 | 0.05 | 0.48 | 0.09 | –
4 | NC(=O)C(CCC(=O)O)NC(=O)C(CCC(=O)O)NC(=O)C(Cc1cc(-c2ccc(-c3cccc(Cl)c3)cc2)no1)CP(=O)(O)c1ccc(Br)cc1 (stereo not shown) [RXP470.1] | – | – | – | – | – | – | – | – | 0.2
